Data taken from the NIST ThermoML archive (doi:10.1016/j.tca.2012.03.018).
Numbers after ± are expanded uncertainties. Each block holds one compound with its values, some of them ahead of it.

Test: molar enthalpy of vaporization or sublimation
Conditions: Liquid

Structure (SMILES): CCCCOC(=O)c1ccccc1C(=O)OCCCC [dibutyl phthalate]
molar enthalpy (393 K): 20.1 ± 0.382 kcal/mol

Structure (SMILES): CCn1cc[n+](C)c1.O=S(=O)([N-]S(=O)(=O)C(F)(F)F)C(F)(F)F
molar enthalpy (525 K): 26.4 ± 0.717 kcal/mol

Structure (SMILES): CCCCCCCCCCCCCCCC [hexadecane]
molar enthalpy (333.5 K, Transpiration): 17.9 ± 0.191 kcal/mol
molar enthalpy (353 K): 17.8 ± 0.382 kcal/mol

Other lines, results leading:

molar enthalpy (353 K): 21.6 ± 0.239 kcal/mol
Structure (SMILES): CCCCCCCCCCCCCCCCCC(=O)OC [methyl octadecanoate]

molar enthalpy (373 K): 22 ± 0.335 kcal/mol
molar enthalpy (383.5 K, Transpiration): 22.3 ± 0.335 kcal/mol
Structure (SMILES): CCCCCCCCCCCCCCCCCC(=O)OCC [ethyl octadecanoate]
